# According to patent US20070043104A1, “UII-modulating compounds and their use” (priority 2005, published 2007):
# Where a name gives a salt, the structure may show the parent alone. Read-outs that look alike come from different tables or passages of the source.
# Biological target: T1, human urotensin II receptor (Homo sapiens, UniProt Q9UKP6)
# T1 construct: expressed in transfected cells; host or cells: NIH3T3 cells
# T1 sequence (Q9UKP6 1-389): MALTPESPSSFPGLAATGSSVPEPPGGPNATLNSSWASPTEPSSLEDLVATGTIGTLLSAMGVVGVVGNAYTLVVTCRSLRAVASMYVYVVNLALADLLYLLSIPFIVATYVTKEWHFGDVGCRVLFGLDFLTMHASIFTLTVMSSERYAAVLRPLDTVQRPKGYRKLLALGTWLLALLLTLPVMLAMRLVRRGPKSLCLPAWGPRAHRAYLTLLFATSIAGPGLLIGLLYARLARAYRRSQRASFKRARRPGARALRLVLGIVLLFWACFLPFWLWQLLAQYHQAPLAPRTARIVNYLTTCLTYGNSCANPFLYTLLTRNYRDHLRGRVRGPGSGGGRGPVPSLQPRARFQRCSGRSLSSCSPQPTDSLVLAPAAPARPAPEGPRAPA
# Experiment: Receptor Selection and Amplification (R-SAT) functional assay, NIH3T3 cells transfected with human urotensin II receptor and β-galactosidase marker
# Type: cell-based
# Conditions: for EC50 / pEC50: eight doses in triplicate
# Experimental: The functional receptor assay, Receptor Selection and Amplification Technology (R-SAT™), was used (with minor modifications from the procedure described previously (Brann, M. R. U.S. Pat. No. 5,707,798, 1998; Chem. Abstr. 1998, 128, 111548) to screen compounds for efficacy at the UII receptor. The RSAT assay was conducted as described herein.
# Briefly, NIH3T3 cells were grown in tissue culture treated rollerbottles to 40-80% confluence in Dulbecco's modified Eagle's medium (DMEM) supplemented with 10% bovine calf serum (Hyclone) and 1% penicillin/streptomycin/glutamine (Invitrogen). Cells were transfected for 12-18 hours with the human urotensin II receptor and the β-galactosidase marker. After transfection, the cells were trypsinized, harvested and frozen in DMEM containing 10% DMSO. Frozen cells were later thawed and tested for a response to a control compound to perform quality control before initiation of pharmacological testing, ensuring the correct pharmacological response and sufficient sensitivity. To initiate the pharmacological assay, cells were thawed rapidly and prepared in DMEM media containing 0.4% calf serum (Hyclone), 30% UltraCulture (Biowhittaker), and 1% penicillin/streptomycin/glutamine (Invitrogen), and then plated at 10,000-40,000 cells per well of a 96½ area plate that contained either the test compounds or reference ligands. Cells were then grown in a humidified atmosphere with 5% ambient CO2 for five days. Media was then removed from the plates and marker gene activity was measured by the addition of the beta-galactosidase substrate ONPG (in PBS with 5% NP-40). The resulting colorimetric reaction was measured in a spectrophotometric plate reader (Titertek Inc.) at […].
# pEC50 represents the negative logarithm of the concentration of ligand that caused 50% activation of the basal receptor response. Percent activation was calculated as the difference between the absorbance measurements in the absence of added ligand compared with that in the presence of saturating concentrations of ligand normalized to the absorbance difference for the reference ligand, which was assigned a value of 100%.
# Results were determined in R-SAT assays and are expressed as pEC50, the negative of the log EC50 in molarity. Results are the average±standard deviation of 2-X determinations of the EC50 where each compound was tested in eight doses in triplicate.
# [1] = NIH3T3, Table 4, % efficacy normalized to UII at 100%
# [2] = Table 4, negative of the log EC50 in molarity, average ± standard deviation of 2-5 determinations
# [3] = NIH3T3, Table 3, percent activation normalized to the reference ligand assigned 100%, read-out: Efficacy
# [4] = Table 3, negative of the log EC50 in molarity, average ± standard deviation (or range) of determinations
Emax [1] [%],EC50 [2] [nM],Emax [3] [%],EC50 [4] [nM],pEC50 [4],SMILES
65 ± 18,1510,,,,"COc1ccc(CC(=O)NC(CCN(C)C)c2ccc(Cl)cc2)cc1 (centres unmarked) [A3, N-[1-(4-Chlorophenyl)-3-dimethylamino-propyl]-2-(4-methoxyphenyl)acetamide HCl]"
,,89 to 129,229 to 380,,"CN(C)CCC(NC(=O)Nc1ccc2ccccc2c1)c1ccc(Cl)cc1 (centres unmarked) [8g, 1-[1-(4-Chlorophenyl)-3-dimethylaminopropyl]-3-(2-naphthyl)-carbamide oxalate]"
75 ± 1,372,,,,"CC(C(=O)NC(CCN(C)C)c1ccc2ccccc2c1)c1ccc(C(F)(F)F)cc1 (centres unmarked) [C5, N-[3-Dimethylamino-1-(2-naphthyl)propyl]-2-(4-trifluoromethylphenyl)propionamide HCl]"
,,170 ± 21,,5.41 ± 0.07,"Cc1ccccc1NC(=O)OC(CCN(C)C)c1ccc(Cl)cc1 (centres unmarked) [7a, N-[1-(4-Chlorophenyl)-3-dimethylaminopropyloxycarbonyl]-2-methylphenyl-amine]"
121 ± 31,1740,,,,"CN(C)CCC(NC(=O)Cc1ccccc1)c1ccc2ccccc2c1 (centres unmarked) [C1, N-[3-Dimethylamino-1-(2-naphthyl)propyl]-2-phenylacetamide HCl]"
,,166 to 193,1780 to 2290,,"CN(C)CCC(NC(=O)NCc1ccccc1)c1ccc(Cl)cc1 (centres unmarked) [8e, 1-[1-(4-Chlorophenyl)-3-dimethylaminopropyl]-3-benzyl-carbamide oxalate]"
,,147 ± 26,,5.87 ± 0.17,"COc1cccc(NC(=O)NC(CCN(C)C)c2ccc(Cl)cc2)c1 (centres unmarked) [8b, 1-[1-(4-Chlorophenyl)-3-dimethylaminopropyl]-3-(3-methoxyphenyl)-carbamide oxalate]"
,,133 ± 36,,5.95 ± 0.09,"COc1cccc(NC(=O)OC(CCN(C)C)c2ccc(Cl)cc2)c1 (centres unmarked) [7b, N-[1-(4-Chlorophenyl)-3-dimethylaminopropyloxycarbonyl]-3-methoxyphenyl-amine]"
60 ± 6,2290,,,,"Cc1ccc(C(CCN(C)C)NC(=O)CCc2ccc(C(F)(F)F)cc2)cc1 (centres unmarked) [B5, N-[3-Dimethylamino-1-(4-methylphenyl)propyl]-3-(4-trifluoromethylphenyl) propionamide HCl]"
,,93 to 120,97.7 to 155,,"CN(C)CCC(NC(=O)Nc1ccc(C(F)(F)F)cc1)c1ccc(Cl)cc1 (centres unmarked) [8i, 1-[1-(4-Chlorophenyl)-3-dimethylaminopropyl]-3-(4-trifluoromethylphenyl)-carbamide oxalate]"
67 ± 14,5370,,,,"COc1ccc(CCC(=O)NC(CCN(C)C)c2ccc(C)cc2)cc1 (centres unmarked) [B6, N-[3-Dimethylamino-1-(4-methylphenyl)propyl]-3-(4-methoxyphenyl)propionamide HCl]"
53 ± 7,871,,,,"CN(C)CCC(NC(=O)Cc1ccc(C(F)(F)F)cc1)c1ccc(Cl)cc1 (centres unmarked) [A2, N-[1-(4-Chlorophenyl)-3-dimethylamino-propyl]-2-(4-trifluoromethylphenyl)acetamide HCl]"

# The next lines start with the compound.
SMILES,Emax [1] [%],EC50 [2] [nM],Emax [3] [%],EC50 [4] [nM],pEC50 [4]
"CN(C)CCC(NC(=O)c1ccc(-c2ccccc2)cc1)c1ccc(Cl)cc1.O=C(O)C(=O)O (centres unmarked) [5o, N-[1-(4-Chlorophenyl)-3-dimethylamino-propyl]-4-phenyl-benzamide oxalate]",,,116 ± 11,,7.11 ± 0.01
"Cc1cccc(C(=O)OC(CCN(C)C)c2ccc(Cl)cc2)c1C (centres unmarked) [4d, 1-(4-Chlorophenyl)-3-dimethylamino-propyl 2,3-dimethyl-benzoate HCl]",,,94 ± 42,1260,
"CN(C)CCC(OC(=O)c1ccc(C(F)(F)F)cc1)c1ccc(Cl)cc1 (centres unmarked) [4q, 1-(4-Chlorophenyl)-3-dimethylamino-propyl 4-trifluoromethyl-benzoate oxalate]",,,36 to 38,1170 to 2090,
"COc1cccc(C(=O)OC(CCN(C)C)c2ccc(Cl)cc2)c1C (centres unmarked) [4e, 1-(4-Chlorophenyl)-3-dimethylamino-propyl 3-methoxy-2-methyl-benzoate HCl]",,,120 ± 57,2090,
"CN(C)CCC(NC(=O)c1ccc(C(F)(F)F)cc1)c1ccc(Cl)cc1 (centres unmarked) [5q, N-[1-(4-Chlorophenyl)-3-dimethylaminopropyl]-4-trifluoromethyl-benzamide oxalate]",,,100 to 127,66.1 to 102,
"Cc1ccc(C)c(C(=O)NC(CCN(C)C)c2ccc(Cl)cc2)c1.O=C(O)C(=O)O (centres unmarked) [5j, N-[1-(4-Chlorophenyl)-3-dimethylamino-propyl]-2,5-dimethyl-benzamide oxalate]",,,164 ± 20,,5.54 ± 0.04
"CN(C)CCC(OC(=O)c1cccc2ccccc12)c1ccc(Cl)cc1.Cl (centres unmarked) [4k, 1-(4-Chlorophenyl)-3-dimethylamino-propyl naphthalene-1-carboxylate HCl]",,,95 ± 24,,5.64 ± 0.02
"CN(C)CCC(NC(=O)c1ccc2c(c1)OCO2)c1ccc(Cl)cc1.O=C(O)C(=O)O (centres unmarked) [5l, N-(1-(4-chlorophenyl)-3-(dimethylamino)propyl)benzo [d][1,3]dioxole-5-carboxamide oxalate]",,,148 ± 32,,5.67 ± 0.17
"CN(C)CCC(OC(=O)c1cc2ccccc2n1C)c1ccc(Cl)cc1 (centres unmarked) [4n, 1-(4-Chlorophenyl)-3-dimethylamino-propyl 1-methyl-indole-2-carboxylate HCl]",,,104 ± 34,1910,
"Cc1ccc(C)c(C(=O)OC(CCN(C)C)c2ccc(Cl)cc2)c1.Cl (centres unmarked) [4h, 1-(4-Chlorophenyl)-3-dimethylamino-propyl 2,5-dimethyl-benzoate HCl]",,,86,,5.73 ± 0.15
